Assay results as given in ChEMBL document CHEMBL1201862, “PubChem BioAssay data set” (2004).
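The compound was tested at five concentrations on cells cultured in 96-well plates, with a 48-hour exposure period. Abbreviation: GI50, concentration required for 50% inhibition of growth.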 The source made the active and inactive calls. No stated cut-off is given here; in the data, active = GI50 up to about 1.1 µM and inactive = higher.

Key:
Assay in all cases: NCI-60 cell line screen, 48 h
OVCAR-3 = system: OVCAR-3
SF-295 = system: SF-295
NCI-H23 = system: NCI-H23
CCRF-CEM = system: CCRF-CEM
PC-3 = system: PC-3
U-251 = system: U-251
DU-145 = system: DU-145
HL-60 = system: HL-60
HCT-15 = system: HCT-15
K562 = system: K562
SK-MEL-2 = system: SK-MEL-2
MDA-N = system: MDA-N
MDA-MB-435 = system: MDA-MB-435
MOLT-4 = system: MOLT-4
SK-OV-3 = system: SK-OV-3
ACHN = system: ACHN
T47D = system: T47D
786-0 = system: 786-0
OVCAR-5 = system: OVCAR-5
UO-31 = system: UO-31
KM12 = system: KM12
UACC-257 = system: UACC-257
A498 = system: A498
SF-539 = system: SF-539
COLO 205 = system: COLO 205
SNB-19 = system: SNB-19
NCI-H460 = system: NCI-H460
HCC 2998 = system: HCC 2998
M14 = system: M14
OVCAR-8 = system: OVCAR-8
IGROV-1 = system: IGROV-1
OVCAR-4 = system: OVCAR-4
HCT-116 = system: HCT-116
LOX IMVI = system: LOX IMVI
MCF7 = system: MCF7
SK-MEL-28 = system: SK-MEL-28
EKVX = system: EKVX
SR = system: SR
RPMI-8226 = system: RPMI-8226
Malme-3M = system: Malme-3M
A549 = system: A549
SK-MEL-5 = system: SK-MEL-5
NCI/ADR-RES = system: NCI/ADR-RES
CAKI-1 = system: CAKI-1
HOP-62 = system: HOP-62
NCI-H522 = system: NCI-H522
BT-549 = system: BT-549
HT-29 = system: HT-29
SW-620 = system: SW-620
UACC-62 = system: UACC-62
HOP-92 = system: HOP-92
TK-10 = system: TK-10
NCI-H226 = system: NCI-H226
SNB-75 = system: SNB-75
Hs-578T = system: Hs-578T
SF-268 = system: SF-268
SN12C = system: SN12C

O=C1/C(=C\c2ccc(Cl)cc2)N=C(c2ccccc2)N1n1c(=O)cn[nH]c1=S
GI50 (OVCAR-3): 27.4 µM (inactive) | GI50 (SF-295): > 100 µM (inactive) | GI50 (NCI-H23): 20.3 µM (inactive) | GI50 (CCRF-CEM): 2.56 µM (inactive) | GI50 (PC-3): 39.7 µM (inactive) | GI50 (U-251): 19.8 µM (inactive) | GI50 (DU-145): 19.8 µM (inactive) | GI50 (HL-60): 18.2 µM (inactive) | GI50 (HCT-15): 21.5 µM | GI50 (K562): 16.9 µM (inactive) | GI50 (SK-MEL-2): > 100 µM (inactive) | GI50 (MDA-N): 52.6 µM (inactive) | GI50 (MDA-MB-435): 30.5 µM (inactive) | GI50 (MOLT-4): 18.7 µM (inactive) | GI50 (SK-OV-3): > 100 µM (inactive) | GI50 (ACHN): > 100 µM (inactive) | GI50 (T47D): 13.5 µM (inactive) | GI50 (786-0): 18.4 µM (inactive) | GI50 (OVCAR-5): > 100 µM (inactive) | GI50 (UO-31): 60.4 µM (inactive) | GI50 (KM12): > 100 µM (inactive) | GI50 (UACC-257): 29.5 µM (inactive) | GI50 (A498): > 100 µM (inactive) | GI50 (SF-539): > 100 µM (inactive) | GI50 (COLO 205): > 100 µM (inactive) | GI50 (SNB-19): 54.3 µM (inactive) | GI50 (NCI-H460): > 100 µM (inactive) | GI50 (HCC 2998): 84.3 µM (inactive) | GI50 (M14): > 100 µM (inactive) | GI50 (OVCAR-8): 21.8 µM (inactive) | GI50 (IGROV-1): 18.5 µM (inactive) | GI50 (OVCAR-4): 23.6 µM (inactive) | GI50 (HCT-116): 68.2 µM (inactive) | GI50 (LOX IMVI): 27.8 µM (inactive) | GI50 (MCF7): 18.4 µM (inactive) | GI50 (SK-MEL-28): > 100 µM (inactive) | GI50 (EKVX): > 100 µM (inactive) | GI50 (SR): 22.5 µM (inactive) | GI50 (RPMI-8226): 18.4 µM (inactive) | GI50 (Malme-3M): > 100 µM (inactive) | GI50 (A549): > 100 µM (inactive) | GI50 (SK-MEL-5): 21.7 µM (inactive) | GI50 (NCI/ADR-RES): 45 µM (inactive) | GI50 (CAKI-1): 40.2 µM (inactive) | GI50 (HOP-62): 52.2 µM (inactive) | GI50 (NCI-H522): 15.8 µM (inactive) | GI50 (BT-549): 28.5 µM (inactive) | GI50 (HT-29): 37.7 µM (inactive) | GI50 (SW-620): 18.1 µM (inactive) | GI50 (UACC-62): 33.7 µM (inactive)

CC(=O)Oc1c(C)cc(-c2cc(C)c(OC(C)=O)c(C)c2)cc1C
GI50 (OVCAR-3): 90.2 µM (inactive) | GI50 (SF-295): 23.7 µM (inactive) | GI50 (NCI-H23): 15.4 µM (inactive) | GI50 (CCRF-CEM): 31 µM (inactive) | GI50 (PC-3): 14.1 µM (inactive) | GI50 (U-251): 15 µM (inactive) | GI50 (DU-145): 41.7 µM (inactive) | GI50 (HOP-92): 36.3 µM (inactive) | GI50 (HL-60): 35.2 µM (inactive) | GI50 (HCT-15): 20.3 µM | GI50 (K562): > 100 µM (inactive) | GI50 (SK-MEL-2): 41.6 µM (inactive) | GI50 (MDA-N): 4.98 µM (inactive) | GI50 (MDA-MB-435): 3.05 µM (inactive) | GI50 (MOLT-4): > 100 µM (inactive) | GI50 (SK-OV-3): 19.5 µM (inactive) | GI50 (ACHN): 33 µM (inactive) | GI50 (786-0): 36.3 µM (inactive) | GI50 (OVCAR-5): 43.7 µM (inactive) | GI50 (TK-10): 30.5 µM (inactive) | GI50 (UO-31): 26.9 µM (inactive) | GI50 (KM12): 17.9 µM (inactive) | GI50 (UACC-257): 41.6 µM (inactive) | GI50 (NCI-H226): 29.7 µM (inactive) | GI50 (COLO 205): 50.4 µM (inactive) | GI50 (SNB-19): 70.1 µM (inactive) | GI50 (NCI-H460): 39.9 µM (inactive) | GI50 (M14): 31.1 µM (inactive) | GI50 (OVCAR-8): 37.1 µM (inactive) | GI50 (IGROV-1): 40.9 µM (inactive) | GI50 (OVCAR-4): 82.6 µM (inactive) | GI50 (HCT-116): 41.1 µM (inactive) | GI50 (SNB-75): 16.2 µM (inactive) | GI50 (LOX IMVI): 17.2 µM (inactive) | GI50 (MCF7): > 100 µM (inactive) | GI50 (SK-MEL-28): 27.6 µM (inactive) | GI50 (EKVX): 37.3 µM (inactive) | GI50 (SR): 75.2 µM (inactive) | GI50 (RPMI-8226): > 100 µM (inactive) | GI50 (Malme-3M): 89.3 µM (inactive) | GI50 (A549): 42.4 µM (inactive) | GI50 (SK-MEL-5): 25.4 µM (inactive) | GI50 (NCI/ADR-RES): 21.1 µM (inactive) | GI50 (Hs-578T): 15.7 µM (inactive) | GI50 (SF-268): 36 µM (inactive) | GI50 (CAKI-1): 57.9 µM (inactive) | GI50 (HOP-62): 45.7 µM (inactive) | GI50 (SN12C): 47.1 µM (inactive) | GI50 (NCI-H522): 24 µM (inactive) | GI50 (BT-549): 10.8 µM (inactive) | GI50 (HT-29): 45.4 µM (inactive) | GI50 (SW-620): 10.2 µM (inactive) | GI50 (UACC-62): 23 µM (inactive)
